Measurements: US20230248814A1, “COMPOSITIONS AND METHODS FOR TREATING MERKEL CELL CARCINOMA (MCC) USING HLA CLASS I SPECIFIC EPITOPES” (The Broad Institute, Inc., priority 2020, published 2023)

Tests used:
Type in all cases: cell-based, human
[1] = system: MCC lines (MCC-301, -277, -290, -320); test: USP7 inhibitor experiments: flow cytometry for surface HLA-I in MCC lines
MKL-1 cells [2] = test: USP7 inhibitor flow cytometry for surface HLA-I in MKL-1 p53-WT control and p53-KO lines; conditions: MKL-1 TP53-KO and TP53-WT lines; 100 nM
Procedure: For MKL-1 USP7 inhibitor experiments, p53-WT control lines (WT, scrambled, AAVS1) and three p53-KO lines were treated with USP7 inhibitors and assessed by flow cytometry for surface HLA I as described above for MCC-301.

MKL-1 cells [3] = test: Cell cycle analysis (EdU/DAPI flow cytometry) of MKL-1 control or p53 KO cells; conditions: MKL-1 TP53-WT and TP53-KO; 100 nM; three days
Procedure: Cell cycle analysis. 1 million MKL-1 control or p53 KO cells were plated and treated with DMSO, XL177A (100 nM) or XL177B (100 nM) for three days. During the last hour of the three- day treatment, the cells were pulsed with 10 µM EdU nucleotide. The cells were collected by centrifugation, treated with Accutase™ (Stem Cell Technologies) to break apart clumps, washed with PBS and fixed using 4% Formaldehyde solution in PBS at Room temperature for 15 mins. Cells were washed with 1% BSA in PBS and resuspended in 70% ice cold ethanol and incubated at -20° C. overnight for additional fixing and permeabilization. The cells were stored in 70% ethanol at -20° C. until the day the data was acquired. On the day of data acquisition, the cells were collected by centrifugation and washed twice with PBS. The incorporated EdU in the cells were labeled with a CLICK reaction cocktail (1 mM CuSO4, 100 µM THPTA, 100 mM sodium ascorbate, and 2.2 µM Alexa 647 azide in PBS) at room temperature with rocking for 30 minutes. The samples were then washed with 1% BSA in PBS once followed by two washes with PBS and incubated with a 1 µg/ml DAPI, 100 ng/ml RNase A solution for one hour at Room temperature to stain the DNA. The samples were then passed through strainer tubes and analyzed using a BD Fortessa analyzer. The flow cytometry data was analyzed using the FlowJo Software. […]

MCC-301 cells = test: HLA-I-bound peptidome (TMT LC-MS/MS) of USP7 inhibitor treated MCC-301 cells
Procedure: Immunopeptidomes of USP7 inhibitor treated cell lines were eluted as described above, followed by labeling with TMT6 reagent (Thermo Fisher; 126-USP7iA, 127-WT, 128 USP7iA, 129 WT, 130-USP7iB, 131 USP7iB) and then pooled for subsequent fractionation using basic reversed phase fractionation with increasing concentrations of acetonitrile (10%, 15% and 50%) in 5 mM ammonium formate (pH 10) and analysis on an Orbitrap Exploris 480 with FAIMSpro. Data acquisition parameters were as above with NCE set to 34 and 2 second dynamic exclusion.
Mass spectra were interpreted using Spectrum Mill software package v7.1 pre-Release (Broad Institute, Cambridge, MA). […] Merging of similar spectra with the same precursor m/z acquired in the same chromatographic peak was disabled. MS/MS spectra were searched against a protein sequence database that contained 90,904 entries, including all UCSC Genome Browser genes with hg19 annotation of the genome and its protein coding transcripts (52,788 entries), common human virus sequences (30,181 entries), recurrently mutated proteins observed in tumors from 26 tissues (4,595 entries), 264 common laboratory contaminants as well as protein sequences containing somatic mutations detected in MCC cell lines (3,076 entries). MS/MS search parameters included: no-enzyme specificity; ESI-QEXACTIVE-HCD-HLA-v3 instrument scoring; fixed modification: […]; variable modifications: oxidation of methionine, carbamidomethylation of cysteine and pyroglutamic acid at peptide N-terminal glutamine; precursor mass tolerance of ±10 ppm; product mass tolerance of ±10 ppm, and a minimum matched peak intensity of 30%. Peptide spectrum matches (PSMs) for individual spectra were automatically designated as confidently assigned using the Spectrum Mill auto-validation module to apply target-decoy based FDR estimation at the PSM level of <1% FDR. Peptide auto-validation was done separately for each sample with an auto thresholds strategy to optimize score and delta Rank1 - Rank2 score thresholds separately for each precursor charge state (1 through 4) across all LC-MS/MS runs per sample. […] Peptide and PSM exports were filtered for contaminants including potential carry over tryptic peptides and peptides identified in a blank bead sample. For TMT-labeled samples, peptides derived from keratin proteins were removed and TMT intensity values were normalized to the global median. P-values were calculated using in house software based on the limma package in R.

[4] = 100 nM, 3 days, two MCPyV+ lines (MCC-301, -277)

In the case of `CN1CCN(CCC(=O)Nc2ccc3c(=O)n(CC4(O)CCN(C(=O)[C@@H](CCCNC(=O)c5ccc6c(Cl)c7c(nc6c5)CCCC7)Cc5ccccc5)CC4)cnc3c2)CC1` [XL177A], the “increase in expression of surface HLA-I relative to DMSO (mean)” value [1, 4] is reported as 2.0 fold, the “increase in expression of surface HLA-I relative to DMSO (range)” value [1, 4] is reported as 1.78 - 2.27 fold and the “increase in MFI (HLA-ABC) by flow cytometry” value ([1]; MCC-301, 100 nM, 4 days) is reported as “greater than twofold increase”. The HLA-I levels ([1]; MCPyV- line MCC-290, 3 days) was “more modest increase in HLA-I levels”, the HLA-I levels ([1]; MCPyV- line MCC-320, 3 days) was “but not MCC-320” and the “surface HLA-I relative to XL177B and DMSO” value (MKL-1 cells [2]) was “increased surface HLA-I”. For the same compound, the “cell cycle phase distribution” value (MKL-1 cells [3]) was “slight cell cycle shifts from S to G1 phase”, the “abundances of HLA-I displayed peptides compared to XL177B and untreated cells” value (MCC-301 cells) was “higher abundances of displayed peptides” and the “frequency of peptides displayed on each HLA-I gene (HLA-A, -B, -C)” value (MCC-301 cells) was “did not affect”. The “peptides more abundant than in untreated cells, out of 282 significantly differing (P < 0.05)” value (MCC-301 cells) was 270 peptides and the “share of the 282 significantly differing peptides more abundant than in untreated cells” value (MCC-301 cells) was 95.7%.
